Legend:
[1] = Pharmacokinetics of prodrug and tapentadol following IV administration to rats; settings: male, Sprague Dawley, in vivo; prodrug in rat plasma; TP-1 IV 2 mg/kg (3 μmol/kg); read-out: TP-1 Cmax ± sd
Experimental: Compound TP-1 (which can be prepared as described in the examples herein) was dissolved in saline and injected into the tail vein of 4 jugular vein-cannulated male Sprague Dawley rats at a dose of 2 mg/kg. At specified time points, blood samples were drawn, harvested for plasma via centrifugation at 5,400 rpm at 4° C. for 5 min, and 100 μl plasma transferred from each sample into a fresh tube containing 2 μl of 50% formic acid. The tubes were vortexed for 5-10 seconds, immediately placed in dry ice and then stored in a −80° C. freezer until analysis by high performance liquid chromatography/mass spectrometry (HPLC/MS).
Table 2 and FIG. 4 provide Compound TP-1 and tapentadol exposure results for rats administered Compound TP-1 intravenously. Results in Table 2 are reported as maximum plasma concentration (Cmax) of Compound TP-1 and tapentadol (TP), respectively, (average±standard deviation).
Compound TP-3 or Compound TP-4 (which can be prepared as described in the examples herein), or tapentadol were dissolved in saline and injected into the tail vein of four jugular vein-cannulated male Sprague Dawley rats at a dose of 2 mg/kg. Sampling and analysis procedures were as described in Example 12.

[2] = target: T1, trypsin (Bos taurus, UniProt P00760); test: In vitro trypsin conversion of prodrug to tapentadol and inhibition thereof by Compound 109; type: biochemical, bovine; settings: bovine, trypsin from bovine pancreas, pH 8, with Compound 109 (trypsin inhibitor); Table 8; 4815 BAEE U trypsin/mL, Compound 109 40 μM; read-out: Pro-drug trypsin half-life, Average ± sd (converted)
T1 construct: purchased Sigma-Aldrich T8003; host or cells: bovine pancreas
T1 sequence (P00760 24-246): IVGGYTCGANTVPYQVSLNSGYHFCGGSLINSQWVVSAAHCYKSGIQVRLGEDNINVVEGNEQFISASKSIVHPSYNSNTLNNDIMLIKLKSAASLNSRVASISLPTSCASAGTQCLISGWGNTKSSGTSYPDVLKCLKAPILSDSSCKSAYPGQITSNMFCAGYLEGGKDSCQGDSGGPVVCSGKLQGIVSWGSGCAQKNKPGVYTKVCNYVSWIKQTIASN
Experimental: (§1) Compound TP-1 was incubated with trypsin from bovine pancreas (Catalog No. T8003, Type I, ˜10,000 BAEE units/mg protein, Sigma-Aldrich). Specifically, the reactions included 0.761 nM of Compound TP-1•2HCl, 22.5 mM calcium chloride, 40 to 172 mM Tris pH 8 and 0.25% DMSO with the BAEE units of trypsin indicated in Table 4. The reactions were conducted at 37° C. for 24 hr. Samples were collected at specified time points, transferred into 0.5% formic acid in acetonitrile to stop trypsin activity and stored at less than −70° C. until analysis by LC-MS/MS.
(§2) Compound TP-1 was also incubated in the presence of 2 micromolar (μM) trypsin inhibitor Compound 109. In that case, Compound TP-1 was added 5 min after the other incubation components. Other reaction and sample treatment conditions were as described above.
(§3) Table 4 indicates the results of exposure of Compound TP-1 to trypsin in the absence or presence of trypsin inhibitor. The results are expressed as half-life of prodrug when exposed to trypsin (i.e., Prodrug trypsin half-life) in hours and rate of tapentadol (TP) formation in umol/h/BAEE U trypsin.
(§4) Compound TP-1, Compound TP-3, or Compound TP-4 (which can be prepared as described in the examples herein) were incubated in the absence or presence of Compound 109 as shown in Table 8. Incubations and analysis procedures were as described in Example 14.

[3] = target: T2, trypsin from bovine pancreas (Bos taurus, UniProt P00760); test: as above; type: biochemical; settings: 4815 BAEE U trypsin/mL
T2 construct: purchased Sigma-Aldrich T8003; host or cells: bovine pancreas
T2 sequence (P00760 24-246): T1 sequence (P00760 24-246)
Experimental: as §1, §2, §3, §4

[4] = Pharmacokinetics of tapentadol release following PO administration of prodrugs or tapentadol to rats; type: in vivo, rat
Experimental: Saline solutions of Compound TP-1 (which can be prepared as described in the examples herein) were dosed as indicated in Table 1 via oral gavage into 4 jugular vein-cannulated male Sprague Dawley rats that had been fasted for 16-18 hr prior to oral dosing. At specified time points, blood samples were drawn, harvested for plasma via centrifugation at 5,400 rpm at 4° C. for 5 min, and 100 microliters (μl) plasma transferred from each sample into a fresh tube containing 2 μl of 50% formic acid. The tubes were vortexed for 5-10 seconds, immediately placed in dry ice and then stored in a −80° C. freezer until analysis by HPLC/MS.
Saline solutions of Compounds TP-1, TP-3, TP-4, (which can be prepared as described in the examples herein) or tapentadol were dosed in approximately equimole amounts as indicated in Table 6. Dose administration, sampling and analysis procedures were as described in Example 11.
Dosing, sampling and analysis procedures were as described in Example 11.

[5] = tested on: norepinephrine uptake into rat hypothalamus synaptosomes; test: In vitro functional norepinephrine uptake assay; type: biochemical; settings: rat hypothalamus synaptosomes
Experimental: The general procedure follows the protocol described by S. Perovic and W. E. G. Muller, 1995, Arzneim-Forsch. Drug Res. 45, 1145-1148. More specifically, the assays included each of the compounds indicated in Table 13 and rat hypothalamus synaptosomes incubated with 0.2 μCi/mL [^3H] norepinephrine. For a control reaction, protriptyline was used. The reaction mixtures were incubated at 37° C. for 20 min, and the reaction product of [^3H] norepinephrine incorporation into the synaptosomes was measured by scintillation counting. IC50 values (concentration causing a half-maximal inhibition of control specific activity) were determined by non-linear regression fit using Hill plot software.

[6] = Pharmacokinetics following PO administration to dogs; type: in vivo, dog; settings: approximately equimole amounts
Experimental: Purebred male young adult/adult beagles were fasted overnight. Compound TP-1 (which can be prepared as described in the examples herein) or tapentadol (which can be prepared as described in PCT patent application No. WO28012046A1) were administered in approximately equimole amounts in water via oral gavage followed immediately by flushing the gavage tube with 5 mL water prior to withdrawal. Blood was collected from each animal predose and following dose administration at 0.25, 0.5, 1, 2, 3, 4, 6, 8, 10, 12 and 24 hours postdose. Blood samples were centrifuged and 0.8 mL plasma transferred to fresh tubes containing 8 μl formic acid; samples were vortexed, then immediately placed in dry ice and stored in a −80° C. freezer until analysis by HPLC/MS.
Table 5 and FIG. 6 provide tapentadol exposure results for dogs administered Compound TP-1 or tapentadol. Results in Table 5 are reported for each group of four dogs as described in Example 11.

SMILES: CC[C@@H](c1cccc(OC(=O)N(C)CCNC(=O)[C@H](CCCNC(=N)N)NC(=O)CC(=O)O)c1)[C@@H](C)CN(C)C [Compound TP-1, N—[(S)-1-(2-{[3-((1R,2R)-3-dimethylamino-1-ethyl-2-methyl-propyl)-phenoxycarbonyl]-methyl-amino}-ethylcarbamoyl)-4-guanidino-butyl]-malonamic acid]
- Cmax [1]: 965 ± 160 ng/mL
- half-life at 0.761 nM [2]: 3.94 ± 0.18 h
- Rate of TP formation, Average ± sd ([3]; Table 4, Compound 109 0 μM): 0.0302 ± 0.002 umol/h/BAEE U
- Rate of TP formation, Average ± sd ([3]; Table 4, Compound 109 2 μM): 0.0243 ± 0.0008 umol/h/BAEE U
- Rate of TP formation, Average ± sd ([3]; Table 8, Compound 109 0 μM): 0.0302 ± 0.002 umol/h/BAEE U
- Rate of TP formation, Average ± sd ([3]; Table 8, Compound 109 2 μM): 0.0243 ± 0.0008 umol/h/BAEE U
- plasma concentrations of tapentadol versus prodrug dose ([4]; 5 to 50 mg/kg): increase proportionally
- tapentadol plasma concentration profile compared to administration of tapentadol ([4]; approximately equimole amounts): suppressed Cmax and delayed Tmax
- activity as a norepinephrine reuptake inhibitor [5]: no detectable activity
- tapentadol PK profile compared to administration of tapentadol [6]: delayed Tmax and increased AUC

From US9238020B2, “Compositions comprising enzyme-cleavable phenol-modified tapentadol prodrug” (priority 2010, dated 2016)
